Source: patent US11008286B2, “Amino mercaptan compound and preparation method therefor and use thereof in protection against radiation” (Institute of Radiation Medicine Chinese Academy of Medical …, priority 2016, dated 2021)
Values joined by “and” are separate entries in the source; they are usually repeats but may differ in a detail not shown here. Equal entries are not always repeated. Structures can show the parent of a compound that is named as a salt. Where two headings read alike, the source gives them in different places.

Key:
[1] = system: C57 male mice; experiment: Example D: protective effect on the hematopoietic system after 4Gy irradiation; format: in vivo; settings: 800 mpk IP 30 min before 4Gy
Description: The mice were sacrificed on the 15th day after the irradiation, followed by blood collection. Femoral bone marrow cells, spleen and thymus were weighed, and cells were extracted for detecting the peripheral white blood cell (WBC) count, peripheral red blood cell (RBC) count, peripheral hemoglobin (HGB) concentration, peripheral platelet (PLT) count, peripheral blood lymphocyte ratio (LY %), and peripheral blood neutrophil ratio (NE %).
In addition, the number of leukocytes in bone marrow, ratio of hematopoietic stem cell (LSK) in bone marrow cells, ratio of hematopoietic progenitor cells (HPC) in bone marrow cells, ratio of CD34−LSK in bone marrow cells, and ratio of CD34+LSK in bone marrow cells were detected.
The effects of irradiation on LSK intracellular reactive oxygen species (ROS) level and HPC intracellular ROS level were also detected.

[2] = system: C57 male mice; experiment: Example E2: HE staining of small intestine on the 5th day after local abdominal irradiation; format: in vivo
Description: In amifostine group, intraperitoneal injection was performed 30 min before the local abdominal irradiation at 16Gy, wherein amifostine was dissolved in normal saline, 365 mpk.
In Example 4 group, intraperitoneal injection was performed 30 min before the local abdominal irradiation at 16Gy, wherein Example 4 was dissolved in normal saline, 517 mpk.
The mice were sacrificed on the 5th day after the irradiation, and the small intestine was taken and sectioned for HE staining.

[3] = system: C57 male mice; experiment: Example F: radiation pneumonia, HE staining of right lung on the 60th day after 17Gy X rays; format: in vivo
Description: Administration and grouping: Mice were intraperitoneally injected with normal saline, Example 4 (400 mpk), and amifostine (200 mpk) respectively 30 min before irradiation, and the right lungs were irradiated at 17Gy by X rays. The right lungs were taken on the 60th day for HE staining (n=3):
Two months after irradiation of the unilateral lung, the most important lung manifestation was radiation pneumonia. […] The alveolar structure of mice in the 17Gy group was changed, which was manifested as a large area of inflammatory infiltration of the lung (the blue dots were inflammatory cells), and the alveoli were filled with inflammatory cells.

[4] = system: C57 male mice;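 on survival rate compared with amifostine: mice aged 8-10 weeks, weighing 20-22 g, with deaths logged and survival rate computed on day 30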;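 on survival rates compared with amifostine: mice aged 8-10 weeks, weighing 20-22 g, with deaths logged and survival rate computed on day 30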
Description: Laboratory animals: C57 male mice, 8-10 weeks old, 20-22 g, were divided into 4 groups, 5 or 10 or 15 or 20 or 25 mice in each group.
Observation index: The death and weight of the mice were recorded, and the survival rate was calculated on the 30th day.

[5] = system: C57 male mice; experiment: Example G: effect of stereoisomerism on survival rate of mice under 7.5Gy irradiation; format: in vivo; settings: 200 mg/kg IP 30 min before irradiation
Description: Laboratory animals: C57 male mice, 19-21 g, purchased from Beijing HFK Bioscience Co. Ltd., license number SCXK (Beijing), 9 mice in each group.

[6] = system: C57 male mice; format: in vivo; settings: for Survival number/Test number: no irradiation, 30-day;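 on survival rate compared with amifostine: mice aged 8-10 weeks, weighing 20-22 g, with deaths logged and survival rate computed on day 30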;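 on survival rates compared with amifostine: mice aged 8-10 weeks, weighing 20-22 g, with deaths logged and survival rate computed on day 30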
Description: Administration and grouping: Each group was intraperitoneally injected with one corresponding dose of amifostine. • Each group was intraperitoneally injected with one corresponding dose of Example 17 (IP).
The 30-day survival rate of mice in each group was recorded.

[7] = cited from earlier work
[8] = 15th day, vs irradiation control
[9] = 6.8Gy, 200 mpk IP 30 min before irradiation, day 30

## CNC(=O)[C@H](CS)NC(=O)[C@H](CS)NC(=O)[C@H](CS)NC [Example 4, (R)-3-mercapto-N—((R)-3-mercapto-1-(((R)-3-mercapto-1-(methylamino)-1-oxopropan-2-yl)amino)-1-oxopropan-2-yl)-2-(methylamino) propanamide trifluoroacetate]
[1]; 15th day
  number of leukocytes (WBC) in bone marrow: increased by administration of Example 4 with significant difference
  ratio of hematopoietic progenitor cells (HPC) in bone marrow cells (HPC %): increased by administration of Example 4 with significant difference
  ratio of hematopoietic stem cell (LSK) in bone marrow cells (LSK %): increased by administration of Example 4 with significant difference
[1]; 15th day, irradiation decreased CD34+LSK %
  ratio of CD34+LSK in bone marrow cells: alleviated this abnormal differentiation with significant difference
[1]; 15th day, irradiation increased CD34−LSK %
  ratio of CD34−LSK in bone marrow cells: alleviated this abnormal differentiation with significant difference
[1]; 15th day, irradiation increased NE %
  peripheral blood neutrophil ratio (NE %): alleviated this abnormal differentiation with significant difference
[1]; 15th day, irradiation reduced LY %
  peripheral blood lymphocyte ratio (LY %): alleviated this abnormal differentiation with significant difference
[1]; [8]
  peripheral red blood cell (RBC) count: increased by administration of Example 4 with significant difference
  peripheral white blood cell (WBC) count: increased by administration of Example 4 with significant difference
[1]; bone marrow
  HPC intracellular ROS level: reduced the ROS levels with significant difference
  LSK intracellular reactive oxygen species (ROS) level: reduced the ROS levels with significant difference
[2]; 517 mpk IP 30 min before local abdominal irradiation at 16Gy
  intestinal villi structure (HE staining): slight changes compared with the irradiation group
[3]; 400 mpk IP 30 min before 17Gy X rays to right lung
  inflammatory cell infiltration of lung / incidence of radiation pneumonia: partially relieve inflammatory cell infiltration and reduce the incidence of radiation pneumonia
[4]; 7.2Gy, 200 mpk IP, day 30
  Survival number/Test number: 20/25
  Survival rate: 80%
[4]; 7.5Gy, 517 mpk IP
  Survival number/Test number: 9/10
  Survival rate: 90%
[4]; 7.5Gy, 800 mpk IP
  Survival number/Test number: 7/10
  Survival rate: 70%
[4]; 10Gy, 365 mpk IP
  Survival number/Test number: 15/20
  Survival rate: 75%
[4]; 12.5Gy, 365 mpk IP
  Survival number/Test number: 4/10
  Survival rate: 40%
[4]; absorbed dose 6.8Gy and 7.2Gy
  survival rates compared with amifostine: survival rates comparable to those using amifostine
[4]; higher absorbed dose, as high as 12.5Gy
  survival rate compared with amifostine: a survival rate equivalent to those using amifostine
[5]
  Survival number/Test number: 5/9
  Survival rate: approximately 56%
[5]; 9 mice per group
  deaths: (4 deaths)
[6]; 400 mpk IP
  Survival number/Test number: 10/10
[6]; 600 mpk IP
  Survival number/Test number: 5/5
[6]; 800 mpk IP
  Survival number/Test number: 10/10
[6]; 900 mpk IP
  Survival number/Test number: 10/10
[6]; 1000 mpk IP
  Survival number/Test number: 6/6 and 10/10
[6]; 1100 mpk IP
  Survival number/Test number: 8/10
[6]; 1200 mpk IP
  Survival number/Test number: 6/10
[6]; 1600 mpk IP
  Survival number/Test number: 3/10
[6]; male, C57, mouse, in vivo, 1000 mg/kg, 30 day
  Survival rate: 100%
[6]; mouse, in vivo
  safety compared with amifostine: as safe as or even better than amifostine

## NCCCNCCSP(=O)(O)O [Amifostine, amifostine, reference compound]
[2]; 365 mpk IP 30 min before local abdominal irradiation at 16Gy
  intestinal villi structure (HE staining): slight changes compared with the irradiation group
[3]; 200 mpk IP 30 min before 17Gy X rays to right lung
  inflammatory cell infiltration of lung / incidence of radiation pneumonia: partially relieve inflammatory cell infiltration and reduce the incidence of radiation pneumonia
[7]
  half-life: 7 min
[4]; [9]
  Survival number/Test number: 5/5
  Survival rate: 100%
[4]; 7.2Gy, 200 mpk IP, day 30
  Survival number/Test number: 9/10 and 12/15 and 4/5 and 7/10 and 20/25
  Survival rate: 90% and 80% and 70%
[4]; 7.5Gy, 200 mpk IP, day 30
  Survival number/Test number: 5/5 and 4/5 and 1/10
[4]; 7.5Gy, 365 mpk IP
  Survival number/Test number: 10/10
  Survival rate: 100%
[4]; 10Gy, 517 mpk IP
  Survival number/Test number: 15/20
  Survival rate: 75%
[4]; 12.5Gy, 517 mpk IP
  Survival number/Test number: 5/10
  Survival rate: 50%
[6]; 400 mpk IP
  Survival number/Test number: 5/5
[6]; 600 mpk IP
  Survival number/Test number: 5/5
[6]; 800 mpk IP
  Survival number/Test number: 3/5
[6]; 1600 mpk IP
  Survival number/Test number: 0/5
